Experimental data taken from ChEMBL document CHEMBL4229569, “Structure-Based Design of 1-Heteroaryl-1,3-propanediamine Derivatives as a Novel Series of CC-Chemokine Receptor 5 Antagonists” (J Med Chem, 2018).

Legend:
Details in all cases: recombinant enzyme
[1] = Drug level in dog liver cells assessed as CYP450-mediated compound formation treated with 4,4-Difluoro-N-(3-((1R,3S,5S)-3-(3-isopropyl-5-methyl-4H-1,2,4-triazol-4-yl)-8-azabicyclo[3.2.1]octan-8-yl)-1-(thiophen-3-yl)-propyl)cyclohexane-1-carboxamide by UPLC/Q-TOF mass spectrometric analysis; assay type: ADME, cell-based, Canis lupus familiaris
[2] = Drug level in dog liver cells assessed as CYP450-mediated compound formation treated with maraviroc by Q-TOF mass spectrometric analysis; assay type: ADME, cell-based, Canis lupus familiaris
[3] = Drug level in mouse liver cells assessed as CYP450-mediated compound formation treated with 4,4-Difluoro-N-(3-((1R,3S,5S)-3-(3-isopropyl-5-methyl-4H-1,2,4-triazol-4-yl)-8-azabicyclo[3.2.1]octan-8-yl)-1-(thiophen-3-yl)-propyl)cyclohexane-1-carboxamide by UPLC/Q-TOF mass spectrometric analysis; assay type: ADME, cell-based
[4] = Drug level in human liver cells assessed as CYP450-mediated compound formation treated with maraviroc by Q-TOF mass spectrometric analysis; assay type: ADME, cell-based
[5] = Drug level in rat liver cells assessed as CYP450-mediated compound formation treated with 4,4-Difluoro-N-(3-((1R,3S,5S)-3-(3-isopropyl-5-methyl-4H-1,2,4-triazol-4-yl)-8-azabicyclo[3.2.1]octan-8-yl)-1-(thiophen-3-yl)-propyl)cyclohexane-1-carboxamide by UPLC/Q-TOF mass spectrometric analysis; assay type: ADME, cell-based
[6] = Drug level in rat liver cells assessed as CYP450-mediated compound formation treated with maraviroc by Q-TOF mass spectrometric analysis; assay type: ADME, cell-based
[7] = Drug level in human liver cells assessed as CYP450-mediated compound formation treated with 4,4-Difluoro-N-(3-((1R,3S,5S)-3-(3-isopropyl-5-methyl-4H-1,2,4-triazol-4-yl)-8-azabicyclo[3.2.1]octan-8-yl)-1-(thiophen-3-yl)-propyl)cyclohexane-1-carboxamide by UPLC/Q-TOF mass spectrometric analysis; assay type: ADME, cell-based

Measured: Drug uptake

Cc1nnc(C(C)C)n1[C@@H]1C[C@H]2CC[C@@H](C1)N2CC[C@H](NC(=O)C1CCC(F)CC1)c1ccsc1 (some centres not stated)
Active: [1] | [2] | [3] | [4] | [5] | [6] | [7]
